Test results: US20050085554A1, “Methods of treating disease through the administration of a manzamine analog or derivative” (priority 2003, published 2005)
In brackets after ≈: the same amount, converted by molar mass. Like-named read-outs stand apart in the source and are kept apart here.

Columns and labels:
[1] = tested on: Plasmodium falciparum (D6 clone); test: Antimalarial activity in vitro, D6 clone; format: cell-based; details: for IC50: Plasmodium falciparum, D6
[2] = tested on: P. falciparum (chlorine-resistant W2 clone); test: Antimalarial activity in vitro, W2 clone; format: cell-based, Plasmodium falciparum; details: for IC50: Plasmodium falciparum
[3] = tested on: methicillin-resistant Staphylococcus aureus; test: Antibacterial activity against MRS; format: cell-based
[4] = tested on: Staphylococcus aureus; test: Antibacterial activity against S. aureus; format: cell-based; details: for IC50: Staphylococcus aureus
[5] = tested on: Mycobacterium intracellulare; test: Activity against M. intracellulare; format: cell-based
[6] = tested on: HIV-1LAV; test: Anti-HIV-1 activity in PBM cells; format: cell-based, human immunodeficiency virus (HIV-1); details: T5
Description: Anti-HIV-1 activity was determined in PBM cells as described previously. See, Stock solutions (20 or 40 mM) of the compounds were prepared in sterile DMSO and then diluted to the desired concentration in growth medium. Cells were infected with the prototype HIV-1LAV at a multiplicity of infection of 0.1. Details on the infection of cells and assessment of antiviral effects was described previously. See, Schinazi, R. F.; McMillan, A.; Cannon, D.; Mathis, R.; Lloyd, R. M.; Peck, A.; Sommadossi, J.-P.; Clair, M. S.; Wilson, J.; Furman, P. A.; Painter G.; Choi, W.-B.; Liotta, D. C. Antimicrob. Agents Chemother. 1992, 36, 2423-2431 and Schinazi, R. F.; Sommadossi, J.-P.; Saalmann, V.; Cannon, D. L.; Xie, M.-Y.; Hart, G. C.; Smith, G. A.; Hahn, E. F. Antimicrob. Agents Chemother. 1990, 34, 1061-1067.

[7] = tested on: Mycobacterium tuberculosis H37Rv; test: In vitro antimycobacterial activity (Microplate Alamar Blue Assay), MIC; format: cell-based; details: for MIC: Mycobacterium tuberculosis, H37RV
[8] = tested on: Leishmania donovani; test: Antileishmanial activity in vitro; format: cell-based; details: T4
[9] = tested on: Cryptococcus neoformans; test: Antifungal activity against Cryptococcus neoformans; format: cell-based; details: T5, NA = not active
[10] = T4, NA = not active, read-out: Plasmodium falciparum (D6 clone) IC 50
[11] = W2, read-out: P. falciparum (chlorine-resistant W2 clone) IC 50
[12] = Mycobacterium intracellulare, T5, NA = not active, read-out: IC50 M. intracellulare
[13] = T4, read-out: Mycobacterium Tuberculosis (H37Rv) MIC

Compound	EC50 [6] [µM]	Mycobacterium Tuberculosis (H37Rv) MIC ([7]; T4) [µg/mL]	IC50 M. intracellulare ([5]; T5, NA = not active) [µg/mL]	Plasmodium falciparum (D6 clone) IC 50 ([1]; T4, NA = not active) [µg/mL]	P. falciparum (chlorine-resistant W2 clone) IC 50 ([2]; T4, NA = not active) [µg/mL]	Leishmania donovani IC 50 [8] [µg/mL]	Leishmania donovani IC 90 [8] [µg/mL]	also measured
C[C@@H]1CC[C@H]2[C@@H](C)C(=O)O[C@@H]3O[C@@]4(C)CC[C@@H]1[C@]32OO4 [Artemisinin, reference compound]								IC50 [1, 10]: 0.01 µg/mL (≈ 0.0354 µM); IC50 ([2]; W2, T4, NA = not active, read-out: P. falciparum (chlorine-resistant W2 clone) IC 50): 0.0063 µg/mL (≈ 0.0223 µM)
CCN(CC)CCCC(C)Nc1ccnc2cc(Cl)ccc12 (stereo not shown) [Chloroquine, reference compound]								IC50 [1, 10]: 0.0155 µg/mL (≈ 0.0485 µM); IC50 ([1]; T6): 0.01 µg/mL (≈ 0.0313 µM); IC50 [2, 11]: 0.17 µg/mL (≈ 0.531 µM); IC50 ([2]; W2, T6, read-out: P. falciparum (W2 clone) IC50): 0.14 µg/mL (≈ 0.438 µM)
O=C(O)c1cn(C2CC2)c2cc(N3CCNCC3)c(F)cc2c1=O [Ciprofloxacin, reference compound]								IC50 ([3]; Staphylococcus aureus, T5, NA = not active, read-out: Antibacterial IC50 MRS): 0.1 µg/mL (≈ 0.302 µM); MIC ([3]; Staphylococcus aureus, T6): 0.31 µg/mL (≈ 0.936 µM); IC50 ([3]; T6, MRS: methicillin-resistant Staphylococcus aureus, read-out: MRS IC50): 0.1 µg/mL (≈ 0.302 µM); IC50 ([4]; T5, NA = not active, read-out: Antibacterial IC50 S. aureus): 0.1 µg/mL (≈ 0.302 µM); IC50 ([4]; T6, read-out: Staphylococcus aureus IC50): 0.1 µg/mL (≈ 0.302 µM); IC50 [5, 12]: 0.25 µg/mL (≈ 0.754 µM); MIC ([5]; Mycobacterium intracellulare, T6): 0.63 µg/mL (≈ 1.9 µM); IC50 ([5]; Mycobacterium intracellulare, T6, read-out: Mycobacterium intracellulare IC50): 0.25 µg/mL (≈ 0.754 µM)
O=CC1=C[C@@]2(O)CC/C=C\CCCCN3CC[C@@H]1[C@]1(CC4/C=C\CCCCN4[C@H]12)C3 (stereo partly shown) [Ircinal A]	6.8	30.2	50 (≈ 122 µM)					
OCC1=C[C@]2(O)CC/C=C\CCCCN3CC[C@@H]1[C@@]1(C[C@H]4/C=C\CCCCN4[C@@H]12)C3 [Ircinol A]	4.3	1.93	50 (≈ 121 µM)	2.4	3.1			Antibacterial IC50 MRS ([3]; T5, NA = not active): 30 µg/mL
O=C1CCCN2[C@@H](CC1)C[C@]13CN4CCCC/C=C\CC[C@](O)(C=C(c5nccc6c5[nH]c5ccccc56)[C@@H]1CC4)[C@H]23 [Manzamine E]	13.1	3.76	12.5 (≈ 22.1 µM)	3.4	4.76	3.8	6.8	
O=C1CCCN2[C@@H](CC1)C[C@]13CN4CCCC/C=C\CC[C@](O)(C=C(c5nccc6c5[nH]c5c(O)cccc56)C1CC4)[C@H]23 (stereo partly shown) [Manzamine F]	7.3	2.56	6.25 (≈ 10.8 µM)	0.78	1.7	4.2	7	Plasmodium falciparum (D6 clone) IC 50 ([1]; T8, NA not defined): 0.78 µg/mL; Antifungal IC50 C. neoformans [9]: 6.5 µg/mL; P. falciparum (chlorine-resistant W2 clone) IC 50 ([2]; T8): 1.7 µg/mL
O[C@]12C=C(c3nccc4c3[nH]c3ccccc34)[C@@H]3CCN(CCCC/C=C\CC1)C[C@@]31CC/C=C\CCCCN[C@H]12 [Manzamine J]		1.7		1.3	0.75	25	45	
Oc1ccc2[nH]c3c(C4=C[C@@]5(O)CC/C=C\CCCCN6CC[C@@H]4[C@@]4(C6)C[C@@]67CC[C@@H](CCCN6[C@H]45)O7)nccc3c2c1 [Manzamine X]	2.3		1.5 (≈ 2.58 µM)	0.95	2	5.7	11	Antibacterial IC50 MRS ([3]; T5, NA = not active): 0.75 µg/mL; Antibacterial IC50 S. aureus ([4]; T5, NA = not active): 1.0 µg/mL; Antifungal IC50 C. neoformans [9]: 3.0 µg/mL
N=C(N)c1ccc(OCCCCCOc2ccc(C(=N)N)cc2)cc1 [Pentamidine, reference compound]								IC50 ([8]; Leishmania donovani, read-out: Leishmania donovani IC 50): 2.1 µg/mL (≈ 6.17 µM); IC90 ([8]; Leishmania donovani, read-out: Leishmania donovani IC 90): 10 µg/mL (≈ 29.4 µM)
CO[C@H]1/C=C/O[C@@]2(C)Oc3c(C)c(O)c4c(O)c(c(/C=N/N5CCN(C)CC5)c(O)c4c3C2=O)NC(=O)/C(C)=C\C=C\[C@H](C)[C@H](O)[C@@H](C)[C@@H](O)[C@@H](C)[C@H](OC(C)=O)[C@@H]1C [Rifampin, reference compound]								MIC [7, 13]: 0.5 µg/mL (≈ 0.608 µM); MIC ([7]; T6, read-out: Mycobacterium tuberculosis MIC): 0.24 µg/mL (≈ 0.292 µM); MIC ([7]; rifampin = positive control, read-out: MIC against Mycobacterium tuberculosis (Mtb)): 0.16 µg/mL (≈ 0.194 µM)
O[C@@H]1CCCN2CC[C@@H]1O[C@@]13CC[C@@H](OC[C@]45CN6CCCC/C=C\CC[C@](O)(C=C(c7nccc8c7[nH]c7ccccc78)[C@@H]4CC6)[C@H]25)[C@@H](O)CCN1[C@@H]1[C@]2(CN4CCCC/C=C\CC[C@]1(O)C=C(c1nccc5c1[nH]c1ccccc15)[C@@H]2CC4)C3 [neo-Kauluamine]								MIC [7, 13]: 2 µg/mL (≈ 1.72 µM); IC50 [1, 10]: 1.7 µg/mL (≈ 1.46 µM); IC50 ([9]; Cryptococcus neoformans, read-out: Antifungal IC50 C. neoformans): 3 µg/mL (≈ 2.58 µM); IC50 [2, 11]: 2.8 µg/mL (≈ 2.41 µM); IC50 [5, 12]: 3 µg/mL (≈ 2.58 µM)
